System in the first series: not listed separately
Put plainly: Half life in human liver microsomes.
Conditions: not given
It counts as ADME, Microsome. (Microsomes from liver hold many membrane-bound enzymes, among them those of drug oxidation.)
In turn, `O[C@H](CF)CN1c2cccc(-c3cccc(OC(F)(F)F)c3)c2OC[C@@H]1c1cccc(OC(F)(F)C(F)F)c1` gave a half-life of 21 min.

System in a further series: not listed separately
Put plainly: Aqueous solubility at pH 2.0. The class given is physicochemical. As to conditions: aqueous medium.
`O[C@@H](CN1c2cccc(-c3cccc(OC(F)(F)F)c3)c2CC[C@@H]1c1cccc(OC(F)(F)C(F)F)c1)C(F)(F)F` came in with a solubility of less than 1 µg/mL.

System in the next series: not listed separately
Briefly: Aqueous solubility at pH 7.4. The class given is physicochemical. The following applies: aqueous medium.
`O[C@@H](CN1c2cccc(-c3cccc(OC(F)(F)F)c3)c2CC[C@@H]1c1cccc(OC(F)(F)C(F)F)c1)C(F)(F)F` registered a solubility of less than 1 µg/mL.

The target of a further series is T1, Cholesteryl ester transfer protein (Homo sapiens, UniProt P11597).
T1 sequence (P11597 whole entry): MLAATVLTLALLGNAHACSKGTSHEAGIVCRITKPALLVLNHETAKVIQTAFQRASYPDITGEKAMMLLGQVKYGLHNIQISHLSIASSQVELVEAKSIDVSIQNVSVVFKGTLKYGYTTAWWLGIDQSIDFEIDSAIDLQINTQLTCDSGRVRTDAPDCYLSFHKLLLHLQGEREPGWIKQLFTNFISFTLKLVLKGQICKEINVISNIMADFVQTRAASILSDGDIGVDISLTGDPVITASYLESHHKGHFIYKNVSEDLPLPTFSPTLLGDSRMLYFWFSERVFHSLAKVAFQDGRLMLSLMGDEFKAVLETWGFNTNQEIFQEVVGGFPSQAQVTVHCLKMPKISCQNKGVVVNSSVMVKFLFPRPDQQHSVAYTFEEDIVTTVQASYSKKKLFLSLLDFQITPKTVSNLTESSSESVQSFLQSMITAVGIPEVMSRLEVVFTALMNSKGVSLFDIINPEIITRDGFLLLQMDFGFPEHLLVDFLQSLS
Briefly: Inhibition of human cholesteryl ester transfer protein by scintillation proximity assay.
Conditions: not given
For orientation: Scintillation proximity formats need no separation of bound from free tracer.
As for `OC(CN1c2cccc(-c3cccc(OC(F)(F)F)c3)c2OCC1c1cccc(OC(F)(F)C(F)F)c1)C(F)(F)F` (mixture of isomers), the IC50 was found to be 45 nM. The same measure, in the same setting: the result for `OC(CN1c2cccc(-c3cccc(OC(F)(F)F)c3)c2OCC1c1cccc(OC(F)(F)F)c1)C(F)(F)F` (mixture of isomers) reads 107 nM; that for `CC(C)C(O)CN1c2cccc(-c3cccc(OC(F)(F)F)c3)c2OCC1c1cccc(OC(F)(F)C(F)F)c1` (mixture of isomers), 129 nM; that for `C[C@H](O)CN1c2cccc(-c3cccc(OC(F)(F)F)c3)c2OC[C@@H]1c1cccc(OC(F)(F)C(F)F)c1`, 88 nM. For the molecule `O[C@@H](CN1c2cccc(-c3cccc(OC(F)(F)F)c3)c2OC[C@@H]1c1cccc(OC(F)(F)F)c1)C(F)(F)F`, half-maximal inhibition (IC50) was put at 133 nM. In turn, `OC(CN1c2cccc(-c3cccc(OC(F)(F)F)c3)c2OCC1c1ccc2c(c1)OC(F)(F)O2)C(F)(F)F` (mixture of isomers) yielded an IC50 of 271 nM.

Another series addresses T2, Cholesteryl ester transfer protein (Homo sapiens) (UniProt P11597).
T2 sequence (whole entry): T1 sequence (P11597 whole entry)
Put plainly: Inhibition of human cholesteryl ester transfer protein at 1 uM by scintillation proximity assay.
Conditions: not given
As for `OCCCN1c2cccc(-c3cccc(OC(F)(F)F)c3)c2OCC1c1cccc(OC(F)(F)C(F)F)c1` (racemic), the inhibition stood at 10%. In the case of `O[C@@H](CN1c2cccc(-c3cccc(OC(F)(F)F)c3)c2OC[C@H]1c1cccc(OC(F)(F)C(F)F)c1)C(F)(F)F`, the inhibition worked out at 14%. On the same count and under the same terms, the result for `OC(CN1c2cccc(-c3cccc(OC(F)(F)F)c3)c2OCC1c1cccc(OC(F)(F)C(F)F)c1)C(F)(F)F` (mixture of isomers) reads 96%; that for `OC[C@@H](O)CN1c2cccc(-c3cccc(OC(F)(F)F)c3)c2OC[C@@H]1c1cccc(OC(F)(F)C(F)F)c1`, 27%; that for `OC(CN1c2cccc(-c3cccc(OC(F)(F)F)c3)c2OCC1c1cccc(OC(F)(F)F)c1)C(F)(F)F` (mixture of isomers), 65%. Turning to `OCCN1c2cccc(-c3cccc(OC(F)(F)F)c3)c2OCC1c1cccc(OC(F)(F)C(F)F)c1` (racemic), the inhibition amounted to 29%. With `OC(CN1c2cccc(-c3cccc(OC(F)(F)F)c3)c2OCC1c1ccc(OC(F)(F)C(F)F)cc1)C(F)(F)F` (mixture of isomers), the inhibition is 33%.

For `CC(=O)CN1c2cccc(-c3cccc(OC(F)(F)F)c3)c2OC[C@@H]1c1cccc(OC(F)(F)C(F)F)c1`, the inhibition amounted to 5%. Same read-out and setting: the result for `O[C@H](CN1c2cccc(-c3cccc(OC(F)(F)F)c3)c2OC[C@H]1c1cccc(OC(F)(F)C(F)F)c1)C(F)(F)F` reads 26%; that for `O[C@@H](CN1c2cccc(-c3cc(F)c(F)c(F)c3)c2OC[C@@H]1c1cccc(OC(F)(F)C(F)F)c1)C(F)(F)F`, 101%.

`COC(=O)N1c2cccc(-c3cccc(OC(F)(F)F)c3)c2OCC1c1cccc(OC(F)(F)C(F)F)c1` (racemic): the inhibition was 16%. With `O[C@@H](CN1c2cccc(-c3cc(F)cc(F)c3)c2OC[C@@H]1c1cccc(OC(F)(F)C(F)F)c1)C(F)(F)F`, the inhibition worked out at 100%. Regarding `CN(C)CCN1c2cccc(-c3cccc(OC(F)(F)F)c3)c2OCC1c1cccc(OC(F)(F)C(F)F)c1` (racemic), the inhibition was 9%. `OC(CN1c2cccc(-c3cccc(OC(F)(F)F)c3)c2OCC1c1cccc(Cl)c1)C(F)(F)F` (mixture of isomers): the inhibition was determined as 62%. `OC(CN1c2cccc(-c3cccc(OC(F)(F)F)c3)c2OCC1c1cccc(SC(F)(F)F)c1)C(F)(F)F` (mixture of isomers): the inhibition was found to be 68%. Take `CCOc1cccc(C2COc3c(-c4cccc(OC(F)(F)F)c4)cccc3N2CC(O)C(F)(F)F)c1` (mixture of isomers): the inhibition was 56%.

For `OC(CN1c2cccc(-c3cccc(OC(F)(F)F)c3)c2OCC1c1ccccc1)C(F)(F)F` (mixture of isomers), the inhibition was 43%. On the same count and under the same terms, the result for `CCCN1c2cccc(-c3cccc(OC(F)(F)F)c3)c2OCC1c1cccc(OC(F)(F)C(F)F)c1` (racemic) reads 39%; that for `O[C@H](CF)CN1c2cccc(-c3cccc(OC(F)(F)F)c3)c2OC[C@@H]1c1cccc(OC(F)(F)C(F)F)c1`, 77%; that for `CC1(C)OC[C@@H](CN2c3cccc(-c4cccc(OC(F)(F)F)c4)c3OC[C@@H]2c2cccc(OC(F)(F)C(F)F)c2)O1` (mixture of isomers), 25%. `CC(C)C(O)CN1c2cccc(-c3cccc(OC(F)(F)F)c3)c2OCC1c1cccc(OC(F)(F)C(F)F)c1` (mixture of isomers): the inhibition is 86%. On to `CCN1c2cccc(-c3cccc(OC(F)(F)F)c3)c2OCC1c1cccc(OC(F)(F)C(F)F)c1` (racemic), for which the inhibition is 24%.

Consider `OC(CN1c2cccc(-c3cccc(OC(F)(F)F)c3)c2OCC1c1ccccc1OC(F)(F)C(F)F)C(F)(F)F` (mixture of isomers), for which the inhibition was 6%. Consider `C[C@H](O)CN1c2cccc(-c3cccc(OC(F)(F)F)c3)c2OC[C@@H]1c1cccc(OC(F)(F)C(F)F)c1`, for which the inhibition is 50%. The same measure, in the same setting: the result for `COc1cccc(C2COc3c(-c4cccc(OC(F)(F)F)c4)cccc3N2CC(O)C(F)(F)F)c1` (mixture of isomers) reads 29%; that for `CC(C)(O)CN1c2cccc(-c3cccc(OC(F)(F)F)c3)c2OCC1c1cccc(OC(F)(F)C(F)F)c1` (racemic), 29%. On to `O[C@@H](CN1c2cccc(-c3cc(C(F)(F)F)cc(C(F)(F)F)c3)c2OC[C@@H]1c1cccc(OC(F)(F)C(F)F)c1)C(F)(F)F`, for which the inhibition was determined as 59%. The same measure, in the same setting: the result for `COCCN1c2cccc(-c3cccc(OC(F)(F)F)c3)c2OCC1c1cccc(OC(F)(F)C(F)F)c1` (racemic) reads 25%. Same read-out and setting: the result for `OC(CN1c2cccc(-c3cccc(OC(F)(F)F)c3)c2OCC1c1cccc(C(F)(F)F)c1)C(F)(F)F` (mixture of isomers) reads 37%; that for `OC(CN1c2cccc(-c3cccc(F)c3)c2OCC1c1cccc(OC(F)(F)C(F)F)c1)C(F)(F)F` (mixture of isomers), 79%; that for `NCCN1c2cccc(-c3cccc(OC(F)(F)F)c3)c2OCC1c1cccc(OC(F)(F)C(F)F)c1` (racemic), 2%.

For `O[C@@H](CF)CN1c2cccc(-c3cccc(OC(F)(F)F)c3)c2OC[C@@H]1c1cccc(OC(F)(F)C(F)F)c1`, the inhibition worked out at 55%. Still for that read-out and setting: the result for `O[C@H](CN1c2cccc(-c3cccc(OC(F)(F)F)c3)c2OC[C@@H]1c1cccc(OC(F)(F)C(F)F)c1)C(F)(F)F` reads 23%; that for `C[C@@H](O)CN1c2cccc(-c3cccc(OC(F)(F)F)c3)c2OC[C@@H]1c1cccc(OC(F)(F)C(F)F)c1`, 28%; that for `O[C@@H](CN1c2cccc(-c3cc(F)cc(F)c3)c2OC[C@@H]1c1cccc(OC(F)(F)F)c1)C(F)(F)F`, 100%. Regarding `O[C@@H](CN1c2cccc(-c3cc(F)c(F)c(F)c3)c2OC[C@@H]1c1cccc(OC(F)(F)F)c1)C(F)(F)F`, the inhibition came out at 94%. Still for that read-out and setting: the result for `O[C@@H](CN1c2cccc(-c3cccc(OC(F)(F)F)c3)c2OC[C@@H]1c1cccc(OC(F)(F)F)c1)C(F)(F)F` reads 69%.

Turning to `OC(CN1c2cccc(-c3cccc(OC(F)(F)F)c3)c2OCC1c1ccc2c(c1)OC(F)(F)O2)C(F)(F)F` (mixture of isomers), the inhibition stood at 48%.

Turning to `FC(F)C(F)(F)Oc1cccc(C2COc3c(-c4cccc(OC(F)(F)F)c4)cccc3N2CCN2CCOCC2)c1` (racemic), the inhibition turned out to be 0%.

Regarding `OC(CN1c2cccc(-c3cccc(OC(F)(F)F)c3)c2OCC1c1ccc(OC(F)(F)F)cc1)C(F)(F)F` (mixture of isomers), the inhibition was found to be 38%. Still for that read-out and setting: the result for `O=C(CN1c2cccc(-c3cccc(OC(F)(F)F)c3)c2OC[C@@H]1c1cccc(OC(F)(F)C(F)F)c1)C(F)(F)F` reads 5%.

The term half-life denotes the time needed for the level to fall by half in the phase considered. Read a low half-life as rapid decline. The term solubility denotes the concentration that dissolves in the medium under given conditions. A high value points to much dissolved substance. For orientation: IC50 means the concentration at which inhibition is half-maximal. In general, inhibition refers to the relative decrease from the control value, in per cent.
